Test results: patent US20130261114A1, “COMPOUNDS USEFUL AS INHIBITORS OF CHOLINE KINASE” (priority 2011, published 2013)
Values joined by “and” are separate entries in the source; they are usually repeats but may differ in a detail not shown here. Equal values may be shown once.

What follows are compounds tested against T1, Choline Kinase alpha enzyme (Homo sapiens, UniProt P35790) (assay: Choline Kinase Alpha Inhibition Assay). Conditions: 20 nM enzyme, 200 μM choline chloride, 400 μM ATP, 25° C., coupled NADH absorbance at 340 nm; read-out: IC50 values (inhibiting Choline Kinase Alpha).
T1 construct: hChoKα1 (M1-V457) (NP_001268); GST (N); made in house; host or cells: E. coli BL21(DE3)
T1 sequence (P35790 whole entry): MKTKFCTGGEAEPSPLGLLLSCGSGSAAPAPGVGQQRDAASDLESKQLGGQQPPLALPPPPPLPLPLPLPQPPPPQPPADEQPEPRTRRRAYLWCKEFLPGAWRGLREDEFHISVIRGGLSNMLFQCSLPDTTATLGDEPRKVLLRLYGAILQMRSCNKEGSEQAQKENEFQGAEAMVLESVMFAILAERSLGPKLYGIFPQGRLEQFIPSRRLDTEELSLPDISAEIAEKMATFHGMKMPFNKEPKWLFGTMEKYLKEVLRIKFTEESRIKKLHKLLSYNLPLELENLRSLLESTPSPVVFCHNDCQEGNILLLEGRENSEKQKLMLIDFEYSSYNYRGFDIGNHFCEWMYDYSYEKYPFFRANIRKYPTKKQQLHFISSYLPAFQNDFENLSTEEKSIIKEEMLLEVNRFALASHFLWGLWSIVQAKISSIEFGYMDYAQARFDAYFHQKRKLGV
Assay type: biochemical
Protocol: An assay buffer solution was prepared which consisted of 100 mM Tris-HCl (pH 7.5), 100 mM KCl, and 10 mM MgCl2. An enzyme buffer containing reagents to final assay concentrations of 290 μM NADH, 2.4 mM phosphoenolpyruvate, 60 μg/mL pyruvate kinase, 20 μg/mL lactate dehydrogenase, 200 μM choline chloride substrate and 20 nM Choline Kinase alpha enzyme was prepared in assay buffer. To 32 μL of this enzyme buffer, in a 96 well plate, was added 2 μL of VRT stock solution in DMSO. The mixture was allowed to equilibrate for 10 mins at 25° C. The enzyme reaction was initiated by the addition of 32 μL stock ATP solution prepared in assay buffer to a final assay concentration of 400 μM. Initial rate data was determined from the rate of change of absorbance at 340 nm (corresponding to stoichiometric consumption of NADH) using a Molecular Devices Spectramax plate reader (Sunnyvale, Calif.) over 15 mins at 25° C. For each IC50 determination, 12 data points covering the VRT concentration range of 0-100 μM were obtained in duplicate (DMSO stocks were prepared from an initial 10 mM VRT stock with subsequent 1:2.5 serial dilutions). IC50 values were calculated from initial rate data using the Prism software package (Prism 4.0a, Graphpad Software, San Diego, Calif.).
hChoKα1 (M1-V457) (NP_001268) was codon optimized for E. coli and cloned into a modified pGEX-2T vector. Recombinant GST-tagged ChoKα1 protein was produced in E. coli strain BL21(DE3). After growing cell cultures at 37° C. until the OD600=1, the cultures were induced with 1 mM IPTG for 16 h at 30° C. and the cells were harvested as a pellet (8500 rpm, 4° C., 20 min). The protein was purified using glutathione affinity purification followed by size exclusion via Superdex-200 26/60 (GE Healthcare). See Malito, Enrico et. al., “Journal of Molecular Biology”, Volume 364, Issue 2, pages 136-151 (November 2006).

SMILES	IC50
Cc1ccccc1C(O)(Cc1ccccc1)C1CN2CCC1CC2 (single isomer, unassigned) [Compound I-84, 1-(o-tolyl)-2-phenyl-1-quinuclidin-3-yl-ethanol]	1000 to 75000 nM
Cc1ccccc1C(O)(Cc1ccccc1)C1CN2CCC1CC2 (single isomer, unassigned) [Compound I-78, 1-(o-tolyl)-2-phenyl-1-quinuclidin-3-yl-ethanol]	< 100 nM
OC(c1ccccc1)(c1ccc(Cl)cc1)C1C[N@]2CC[C@@H]1CC2 (some centres unmarked) [Compound I-86]	100 to 1000 nM
OC(c1ccccc1)(c1ccccc1)C1CN2CCC1CC2 (centres unmarked) [Compound I-87]	100 to 1000 nM
OC(c1ccc(Cl)s1)(c1ccc(Cl)s1)C1CN2CCC1CC2 (centres unmarked) [Compound I-81]	100 to 1000 nM
OC(Cc1ccccc1)(Cc1ccccc1)C1CN2CCC1CC2 (centres unmarked) [Compound I-83]	1000 to 75000 nM
CN(C)c1ccc(CCC(O)(c2ccc(N(C)C)cc2)C2CN3CCC2CC3)cc1 (centres unmarked) [Compound I-17]	1000 to 75000 nM
OC(c1cccc(Cl)c1)(c1cccc(Cl)c1)C1CN2CCC1CC2 (centres unmarked) [Compound I-82]	1000 to 75000 nM
OC(Cc1ccccc1)(c1ccccc1)C1CN2CCC1CC2 (centres unmarked) [Compound I-80]	100 to 1000 nM
CN(C)c1ccc(C(O)(c2ccc(N(C)C)cc2)C2CN3CCC2CC3)cc1 (centres unmarked) [Compound I-79]	100 to 1000 nM and 1000 to 75000 nM
OC(c1ccccc1)(c1ccccc1Cl)C1C[N@]2CC[C@@H]1CC2 (some centres unmarked) [Compound I-85]	100 to 1000 nM
